Consider one molecule from patent US20210196714A1, “COMPOSITIONS AND METHODS FOR TREATING DISORDERS CHARACTERIZED WITH ABERRANT RAS/MAPK SIGNALING” (Duke University, priority 2018, published 2021).

The subject of test [1] is kmt2d+/−×kmt2d+/− progeny. Put plainly: CE defect in stable kmt2d mutant intercross progeny. It counts as in vivo, zebrafish. As to conditions: 100 mM dmDf, 1 dpf. From the text: FIG. 12: Treatment with dmDf rescues the defects of stable kmt2d mutant. kmt2d+/− adults were in-crossed and the embryos were then collected at 1 dpf, 2 dpf and 5 dpf to assess dmDf efficacy. […] Error bars show SEM (standard error of the mean).
Although the small molecule testing data in CRISPR F0 mosaic models are consistent with morphant phenotypes (and rescue), experiments recognized the necessity of testing the potential efficacy of dmDf in a stable genetic model that is a better genotypic proxy to human patients. […] In addition to examining proliferation of cells in the brain, experiments assessed whether neural differentiation is affected (see, Van Laarhoven, P. M. et al. Hum Mol Genet 24, 4443-53 (2015)).
(§1) For convergence and extension (CE) phenotyping, embryos were scored as described (see, Leitch, C. C. et al. Nat Genet 40, 443-8 (2008)) at the 8-10 somite stage, and images were captured using an AZ100 microscope and NIS Elements software (Nikon). […] The distance between Meckel's (MK) and ceratohyal (CH) cartilages was measured on ventral bright field images with Image J (NIH). […] Fluorescence signal on embryo heads was imaged with the Nikon AZ100 microscope and DS-Qi1MC digital camera using […] Z-stacks to generate extended depth of focus images. Cell numbers were quantified using the ImageJ ICTN plugin (NIH). […]

The next test deals with kdm6a morphants. Put plainly: Brain cell proliferation (pHH3 immunostaining) in kdm6a morphants. The class given is in vivo, zebrafish. The conditions noted are these: 100 nM, 2 dpf, listed as dmDf.
Source text: Intellectual disability represents a major phenotype in KS, with some studies reporting almost 90% of patients to be affected (see, Wessels, M. W., et al. Clin Dysmorphol 11, 95-102 (2002)). […] Previous studies have shown that defects in proliferation in the developing zebrafish brain can be a proxy for neurodevelopmental and neurocognitive traits, especially in the context of microcephaly (see, Borck, G. et al. Genome Res 25, 609 (2015); Brooks, S. S. et al. Genetics 198, 723-33 (2014); O'Rawe, J. A. et al. Am J Hum Genet 97, 922-32 (2015); Wortmann, S. B. et al. Am J Hum Genet 96, 245-57 (2015)), a phenotype reported commonly in KS (see, Matsumoto, N. & Niikawa, N. Am J Med Genet C Semin Med Genet 117C, 57-65 (2003)).
as §1

Entries after “also recorded” stand apart in the source; their conditions may differ.

`CC(C)c1nc(-c2cccc(NS(=O)(=O)c3c(F)cccc3F)c2F)c(-c2ccnc(N)n2)s1` [Compound 8, desmethyl-Dabrafenib]: the CE defect entry in test [1] is “ameliorates significantly”. Besides, the “embryos showing Class I or Class II CE defects” value in test [1] (p<0.001) came out at 20%. The “total number of proliferating (pHH3+) cells in brain” value in the test with kdm6a morphants was “significantly increases pHH3+ proliferating cells; also recorded: restored the total number of proliferating cells to wild type levels”.
